{
  "source": "patent US8815837B2",
  "about": "“Respiratory disease treatment” (Pulmagen Therapeutics (Inflammation) Limited, priority 2008, dated 2014)",
  "key": {"[1]": {"test_system": "Tobacco Smoke Induced Pulmonary Inflammation", "experiment": "Pre-clinical mouse model of COPD inflammation: tobacco smoke induced pulmonary inflammation, BAL cell counts", "format": "in vivo", "settings": "mice, intranasal, BAL 24 h after final TS exposure", "text": "Pre-Clinical Mouse Model of COPD Inflammation—Tobacco Smoke Induced Pulmonary Inflammation\nProtocols for the exposure of mice to TS, obtaining bronchoalveolar lavage (BAL), preparation of cytospin slides for differential cell counts are as outlined below.\nExposure of Mice to TS Daily for 4 or 11 Consecutive Days\nIn this exposure protocol, mice were exposed in groups of 5 in individual clear polycarbonate chambers (27 cm×16 cm×12 cm). The TS from the cigarettes was allowed to enter the exposure chambers at a flow rate of 100 ml/min. In order to minimise any potential problems caused by repeated exposure to a high level of TS (6 cigarettes), the exposure of the mice to TS was increased gradually over the exposure period to a maximum of 6 cigarettes. The exposure schedule used for 4 days was as follows:\nThe exposure schedule used for 11 days exposure was as follows:\nA further group of mice were exposed to air on a daily basis for equivalent lengths of time as controls (no TS exposure).\nBronchoalveolar Lavage (BAL) Analysis\nBronchoalveolar lavage was performed as follows: the trachea was cannulated using a Portex nylon intravenous cannula (pink luer fitting) shortened to approximately 8 mm. Phosphate buffered saline (PBS) was used as the lavage fluid. A volume of 0.4 ml was gently instilled and withdrawn 3 times using a 1 ml syringe and then placed in an Eppendorf tube and kept on ice prior to subsequent determinations.\nLavage fluid was separated from cells by centrifugation and the supernatant decanted and frozen for subsequent analysis. The cell pellet was re-suspended in a known volume of PBS and total cell numbers calculated by counting a stained (Turks stain) aliquot under a microscope using a haemocytometer.\nDifferential Cell Counts were Performed as Follows:\nThe residual cell pellet was diluted to approximately 10^5 cells per ml. A volume of 500 μl was placed in the funnel of a cytospin slide and centrifuged for 8 min at 800 rpm. The slide was air dried and stained using ‘Kwik-Diff’ solutions (Shandon) as per the proprietary instructions. When dried and cover-slipped, differential cells were counted using light microscopy. Up to 400 cells were counted by unbiased operator using light microscopy. Cells were differentiated using standard morphometric techniques.\nRodents such as mice and rats are obligate nasal breathers thus oral delivery of test materials (such as therapeutic agents) for inhalation will not produce good lung exposure. As a consequence, delivery of therapeutic agents to the lungs in rodents is generally achieved by intra-nasal, intra-tracheal or inhalation by whole body aerosol exposure in a chamber.\nThe chamber method utilises large amounts of test material and is generally reserved for inhalation toxicology studies rather than pharmacological efficacy studies. Intra-tracheal administration is a very efficient delivery method as almost all of the test material is delivered to the lungs, but this is quite an invasive technique. For studies in the mouse particularly, it is also quite technically demanding as the diameter of the trachea is quite small. The intranasal route is less invasive than the intra-tracheal route and so is particularly suitable for repeat dosing studies such as the 4-11 day mouse model described below.\nThe control group of mice received vehicle 1 hr prior to being exposed to air daily for a maximum of 50 minutes per day. BAL was performed 24 h following the final TS exposure. All compounds were dosed as the HCl salt with doses corrected as base.\n[…]\nData Management and Statistical Analysis\nAll results are presented as individual data points for each animal and the mean value was calculated for each group."}, "[2]": {"settings": "cited from earlier work"}, "rodent diabetes model": {"test_system": "rodent diabetes model", "settings": "oral administration; cited from earlier work"}, "PPARγ receptor": {"molecular_target": "T1, PPARγ receptor (Homo sapiens, UniProt P37231)", "T1 sequence (P37231 1-505)": "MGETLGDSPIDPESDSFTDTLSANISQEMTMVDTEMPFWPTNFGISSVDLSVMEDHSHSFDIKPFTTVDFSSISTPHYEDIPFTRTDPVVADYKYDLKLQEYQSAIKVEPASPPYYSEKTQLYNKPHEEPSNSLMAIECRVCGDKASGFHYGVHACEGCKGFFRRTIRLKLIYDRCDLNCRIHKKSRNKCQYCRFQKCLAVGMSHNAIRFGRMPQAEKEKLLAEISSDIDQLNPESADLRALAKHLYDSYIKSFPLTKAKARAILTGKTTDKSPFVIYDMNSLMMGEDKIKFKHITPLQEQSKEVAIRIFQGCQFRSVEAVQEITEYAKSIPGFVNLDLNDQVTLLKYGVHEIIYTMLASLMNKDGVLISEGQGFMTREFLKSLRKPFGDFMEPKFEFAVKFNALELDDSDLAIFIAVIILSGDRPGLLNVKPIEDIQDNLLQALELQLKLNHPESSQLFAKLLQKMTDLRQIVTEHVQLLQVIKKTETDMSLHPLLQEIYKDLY", "settings": "page 13 of WO2007100027; cited from earlier work"}, "[3]": {"settings": "1 μg/kg, pioglitazone experiment, FIG. 1"}, "[4]": {"settings": "1 μg/kg, pioglitazone experiment, FIG. 2"}, "[5]": {"settings": "3 μg/kg, pioglitazone experiment, FIG. 1"}, "[6]": {"settings": "3 μg/kg, pioglitazone experiment, FIG. 2"}, "[7]": {"settings": "3 μg/kg, rosiglitazone experiment, FIG. 3"}, "[8]": {"settings": "3 μg/kg, rosiglitazone experiment, FIG. 4"}, "[9]": {"settings": "10 μg/kg, rosiglitazone experiment, FIG. 3"}, "[10]": {"settings": "10 μg/kg, rosiglitazone experiment, FIG. 4"}},
  "data": [
    {"smiles": "CCc1ccc(CCOc2ccc(C[C@@H]3SC(=O)NC3=O)cc2)nc1.Cl", "note": "[Example 6, (5S)-5-{4-[2-(5-ethylpyridin-2-yl)ethoxy]benzyl}-1,3-thiazolidine-2,4-dione hydrochloride]", "values": [
      {"measurement": "BAL cell influx (total BAL cells) induced by TS", "setting": "[1]; [3]", "value": "failed to inhibit"},
      {"measurement": "BAL neutrophil numbers induced by TS exposure", "setting": "[1]; [4]", "value": "ineffective"},
      {"measurement": "BAL cell influx (total BAL cells) induced by TS", "setting": "[1]; [5]", "value": "failed to inhibit"},
      {"measurement": "BAL neutrophil numbers induced by TS exposure", "setting": "[1]; [6]", "value": "ineffective"}
    ]},
    {"smiles": "CN(CCOc1ccc(C[C@H]2SC(=O)NC2=O)cc1)c1ccccn1.Cl", "note": "[Example 8, (5R)-5-(4-{2-[methyl(pyridin-2-yl)amino]ethoxy}benzyl)-1,3-thiazolidine-2,4-dione hydrochloride]", "values": [
      {"measurement": "BAL cell influx (total BAL cells) induced by TS", "setting": "[1]; [7]", "value": "significantly inhibited"},
      {"measurement": "BAL neutrophil numbers induced by TS exposure", "setting": "[1]; [8]", "value": "significantly inhibited"},
      {"measurement": "BAL cell influx (total BAL cells) induced by TS", "setting": "[1]; [9]", "value": "significantly inhibited"},
      {"measurement": "BAL neutrophil numbers induced by TS exposure", "setting": "[1]; [10]", "value": "significantly inhibited"}
    ]},
    {"smiles": "CCc1ccc(CCOc2ccc(CC3SC(=O)NC3=O)cc2)nc1", "note": "(racemic) [Racemic pioglitazone, 5-{4-[2-(5-ethylpyridin-2-yl)ethoxy]benzyl}-1,3-thiazolidine-2,4-dione, reference compound]", "values": [
      {"measurement": "interconversion of the two enantiomers in vivo", "setting": "[2]", "value": "interconvert in vivo"},
      {"measurement": "activity of racemate versus individual enantiomers in a rodent diabetes model", "setting": "rodent diabetes model", "value": "no difference in activity"},
      {"measurement": "BAL cell influx (total BAL cells) induced by TS", "setting": "[1]; [5]", "value": "significantly inhibited"},
      {"measurement": "BAL neutrophil numbers induced by TS exposure", "setting": "[1]; [6]", "value": "significantly inhibited"}
    ]},
    {"smiles": "CN(CCOc1ccc(C[C@@H]2SC(=O)NC2=O)cc1)c1ccccn1.Cl", "note": "[Example 9, (5S)-5-(4-{2-[methyl(pyridin-2-yl)amino]ethoxy}benzyl)-1,3-thiazolidine-2,4-dione hydrochloride monohydrate]", "values": [
      {"measurement": "BAL cell influx (total BAL cells) induced by TS", "setting": "[1]; [7]", "value": "failed to inhibit"},
      {"measurement": "BAL neutrophil numbers induced by TS exposure", "setting": "[1]; [8]", "value": "ineffective"},
      {"measurement": "BAL cell influx (total BAL cells) induced by TS", "setting": "[1]; [9]", "value": "failed to inhibit"},
      {"measurement": "BAL neutrophil numbers induced by TS exposure", "setting": "[1]; [10]", "value": "ineffective"}
    ]},
    {"smiles": "COc1ccc2nc(COc3ccc(CC4SC(=O)NC4=O)cc3)n(C)c2c1", "note": "(centres unmarked) [Rivoglitazone]", "values": [
      {"measurement": "receptor binding affinity, 5S versus 5R enantiomer", "setting": "PPARγ receptor", "value": "5S enantiomer also has higher receptor binding affinity than the 5R enantiomer"}
    ]},
    {"smiles": "CCc1ccc(CCOc2ccc(C[C@H]3SC(=O)NC3=O)cc2)nc1.Cl", "note": "[Example 4, (5R)-5-{4-[2-(5-ethylpyridin-2-yl)ethoxy]benzyl}-1,3-thiazolidine-2,4-dione hydrochloride]", "values": [
      {"measurement": "BAL cell influx (total BAL cells) induced by TS", "setting": "[1]; [3]", "value": "significantly inhibited"},
      {"measurement": "BAL neutrophil numbers induced by TS exposure", "setting": "[1]; [4]", "value": "significantly inhibited"},
      {"measurement": "BAL cell influx (total BAL cells) induced by TS", "setting": "[1]; [5]", "value": "significantly inhibited"},
      {"measurement": "BAL neutrophil numbers induced by TS exposure", "setting": "[1]; [6]", "value": "significantly inhibited"}
    ]},
    {"smiles": "CN(CCOc1ccc(CC2SC(=O)NC2=O)cc1)c1ccccn1", "note": "(racemic) [Racemic rosiglitazone, 5-(4-{2-[methyl (pyridin-2-yl)amino]ethoxy]benzyl}-1,3-thiazolidine-2,4-dione, reference compound]", "values": [
      {"measurement": "BAL cell influx (total BAL cells) induced by TS", "setting": "[1]; [9]", "value": "significantly inhibited"},
      {"measurement": "BAL neutrophil numbers induced by TS exposure", "setting": "[1]; [10]", "value": "significantly inhibited"}
    ]}
  ]
}
